Tested on: recombinant NL-Rluc virus
Assay: Inhibition of HIV replication (NL-RLuc luciferase reporter virus, MT-2 cells)
Type: cell-based
Settings: Human immunodeficiency virus 1, MT2, 120 h, read-out: Activity

Row | SMILES | EC50 [µM]
1 | Cc1nc2cc(C(=O)N3CCC(c4ccc(F)cc4)CC3)nn2c(-c2cc(F)c3c(c2C)CCCO3)c1[C@H](OC(C)(C)C)C(=O)O (atropisomer, axis not shown) [Example 138, (S)-2-(tert-Butoxy)-2-((S)-7-(8-fluoro-5-methylchroman-6-yl)-2-(4-(4-fluorophenyl)piperidine-1-carbonyl)-5-methylpyrazolo[1,5-a]pyrimidin-6-yl)acetic acid] | < 0.1
2 | Cc1cc(CNC(=O)c2cc3nc(C)c(C(OC(C)(C)C)C(=O)O)c(-c4cc(F)c5c(c4C)CCCO5)n3n2)ccc1F (stereo in doubt) [Example 3, (2S)-2-(tert-Butoxy)-2-(2-((4-fluoro-3-methylbenzyl)carbamoyl)-7-(8-fluoro-5-methylchroman-6-yl)-5-methylpyrazolo[1,5-a]pyrimidin-6-yl)acetic acid] | < 0.1
3 | Cc1nc2cc(C(=O)NCc3ccc(F)cc3-n3ncnc3C)nn2c(-c2cc(F)c3c(c2C)CCCO3)c1C(OC(C)(C)C)C(=O)O (stereo in doubt) [Example 9, (2S)-2-(tert-butoxy)-2-(2-((4-fluoro-2-(5-methyl-1H-1,2,4-triazol-1-yl)benzyl)carbamoyl)-7-(8-fluoro-5-methylchroman-6-yl)-5-methylpyrazolo[1,5-a]pyrimidin-6-yl)acetic acid] | 0.1 to 1
4 | Cc1nc2cc(C(=O)NCc3ccc(F)cc3)nn2c(-c2cc(F)c3c(c2C)CCCO3)c1[C@H](OC(C)(C)C)C(=O)O [Example 1, (2S)-2-(tert-butoxy)-2-(7-(8-fluoro-5-methylchroman-6-yl)-2-((4-fluorobenzyl)carbamoyl)-5-methylpyrazolo[1,5-a]pyrimidin-6-yl)acetic acid] | < 0.1
5 | Cc1nc2cc(C(=O)NCC3CCN(C(=O)C(C)C)CC3)nn2c(-c2cc(F)c3c(c2C)CCCO3)c1[C@H](OC(C)(C)C)C(=O)O [Example 2, (2S)-2-(tert-Butoxy)-2-(7-(8-fluoro-5-methylchroman-6-yl)-2-(((1-isobutyrylpiperidin-4-yl)methyl)carbamoyl)-5-methylpyrazolo[1,5-a]pyrimidin-6-yl)acetic acid] | > 1
6 | Cc1nc2cc(C(=O)NCc3ccccc3)nn2c(-c2cc(F)c3c(c2C)CCCO3)c1[C@H](OC(C)(C)C)C(=O)O [Example 4, (2S)-2-(2-(Benzylcarbamoyl)-7-(8-fluoro-5-methylchroman-6-yl)-5-methylpyrazolo[1,5-a]pyrimidin-6-yl)-2-(tert-butoxy)acetic acid] | < 0.1
7 | Cc1ccc(CNC(=O)c2cc3nc(C)c([C@H](OC(C)(C)C)C(=O)O)c(-c4cc(F)c5c(c4C)CCCO5)n3n2)cc1 [Example 5, (2S)-2-(tert-butoxy)-2-(7-(8-fluoro-5-methylchroman-6-yl)-5-methyl-2-((4-methylbenzyl)carbamoyl)pyrazolo[1,5-a]pyrimidin-6-yl)acetic acid] | < 0.1
8 | Cc1cccc(CNC(=O)c2cc3nc(C)c([C@H](OC(C)(C)C)C(=O)O)c(-c4cc(F)c5c(c4C)CCCO5)n3n2)c1 [Example 6] | < 0.1
9 | Cc1ccccc1CNC(=O)c1cc2nc(C)c([C@H](OC(C)(C)C)C(=O)O)c(-c3cc(F)c4c(c3C)CCCO4)n2n1 [Example 7, (2S)-2-(tert-butoxy)-2-(7-(8-fluoro-5-methylchroman-6-yl)-5-methyl-2-((2-methylbenzyl)carbamoyl)pyrazolo[1,5-a]pyrimidin-6-yl)acetic acid] | < 0.1
10 | Cc1nc2cc(C(=O)N(C)Cc3ccc(F)cc3)nn2c(-c2cc(F)c3c(c2C)CCCO3)c1[C@H](OC(C)(C)C)C(=O)O [Example 8, (2S)-2-(tert-butoxy)-2-(7-(8-fluoro-5-methylchroman-6-yl)-2-((4-fluorobenzyl)(methyl)carbamoyl)-5-methylpyrazolo[1,5-a]pyrimidin-6-yl)acetic acid] | < 0.1
11 | Cc1nc2cc(C(=O)NCc3ccc(F)cc3-n3nncc3C)nn2c(-c2cc(F)c3c(c2C)CCCO3)c1[C@H](OC(C)(C)C)C(=O)O [Example 10, (2S)-2-(tert-butoxy)-2-(2-((4-fluoro-2-(5-methyl-1H-1,2,3-triazol-1-yl)benzyl)carbamoyl)-7-(8-fluoro-5-methylchroman-6-yl)-5-methylpyrazolo[1,5-a]pyrimidin-6-yl)acetic acid] | 0.1 to 1
12 | Cc1nc2cc(C(=O)NCc3ccc(F)cc3-n3cncn3)nn2c(-c2cc(F)c3c(c2C)CCCO3)c1[C@H](OC(C)(C)C)C(=O)O [Example 11, (2S)-2-(tert-butoxy)-2-(2-((4-fluoro-2-(1H-1,2,4-triazol-1-yl)benzyl)carbamoyl)-7-(8-fluoro-5-methylchroman-6-yl)-5-methylpyrazolo[1,5-a]pyrimidin-6-yl)acetic acid] | 0.1 to 1
13 | Cc1nc2cc(C(=O)NCc3ccc(F)cc3N3CCCC3=O)nn2c(-c2cc(F)c3c(c2C)CCCO3)c1[C@H](OC(C)(C)C)C(=O)O [Example 12, (2S)-2-(tert-butoxy)-2-(2-((4-fluoro-2-(2-oxopyrrolidin-1-yl)benzyl)carbamoyl)-7-(8-fluoro-5-methylchroman-6-yl)-5-methylpyrazolo[1,5-a]pyrimidin-6-yl)acetic acid] | > 1
14 | Cc1nc2cc(C(=O)NS(=O)(=O)c3ccccc3)nn2c(-c2cc(F)c3c(c2C)CCCO3)c1[C@H](OC(C)(C)C)C(=O)O [Example 13, (2S)-2-(tert-butoxy)-2-(7-(8-fluoro-5-methylchroman-6-yl)-5-methyl-2-((phenylsulfonyl)carbamoyl)pyrazolo[1,5-a]pyrimidin-6-yl)acetic acid] | > 1
15 | Cc1nc2cc(C(=O)NS(=O)(=O)Cc3ccccc3)nn2c(-c2cc(F)c3c(c2C)CCCO3)c1[C@H](OC(C)(C)C)C(=O)O [Example 14, (2S)-2-(2-((benzylsulfonyl)carbamoyl)-7-(8-fluoro-5-methylchroman-6-yl)-5-methylpyrazolo[1,5-a]pyrimidin-6-yl)-2-(tert-butoxy)acetic acid] | > 1
16 | Cc1ccc(NC(=O)c2cc3nc(C)c([C@H](OC(C)(C)C)C(=O)O)c(-c4cc(F)c5c(c4C)CCCO5)n3n2)cc1 [Example 15, (2S)-2-(tert-butoxy)-2-(7-(8-fluoro-5-methylchroman-6-yl)-5-methyl-2-(p-tolylcarbamoyl)pyrazolo[1,5-a]pyrimidin-6-yl)acetic acid] | < 0.1
17 | Cc1nc2cc(C(=O)NCC3CCCCC3)nn2c(-c2cc(F)c3c(c2C)CCCO3)c1[C@H](OC(C)(C)C)C(=O)O [Example 16, (2S)-2-(tert-butoxy)-2-(2-((cyclohexylmethyl)carbamoyl)-7-(8-fluoro-5-methylchroman-6-yl)-5-methylpyrazolo[1,5-a]pyrimidin-6-yl)acetic acid] | < 0.1
18 | CON(Cc1ccc(F)cc1)C(=O)c1cc2nc(C)c([C@H](OC(C)(C)C)C(=O)O)c(-c3cc(F)c4c(c3C)CCCO4)n2n1 [Example 17, (2S)-2-(tert-butoxy)-2-(7-(8-fluoro-5-methylchroman-6-yl)-2-((4-fluorobenzyl)(methoxy)carbamoyl)-5-methylpyrazolo[1,5-a]pyrimidin-6-yl)acetic acid] | < 0.1

Same assay, conditions: Human immunodeficiency virus 1, MT2, 120 h, read-out: EC50 μM

Row | SMILES | EC50 [µM]
19 | Cc1cc(CNC(=O)c2cc3nc(C)c(C(OC(C)(C)C)C(=O)O)c(-c4cc(F)c5c(c4C)CCCO5)n3n2)ccc1F (stereo in doubt) [Example 3, (2S)-2-(tert-Butoxy)-2-(2-((4-fluoro-3-methylbenzyl)carbamoyl)-7-(8-fluoro-5-methylchroman-6-yl)-5-methylpyrazolo[1,5-a]pyrimidin-6-yl)acetic acid] | 0.032
20 | Cc1nc2cc(C(=O)NCc3ccc(F)cc3)nn2c(-c2cc(F)c3c(c2C)CCCO3)c1[C@H](OC(C)(C)C)C(=O)O [Example 1, (2S)-2-(tert-butoxy)-2-(7-(8-fluoro-5-methylchroman-6-yl)-2-((4-fluorobenzyl)carbamoyl)-5-methylpyrazolo[1,5-a]pyrimidin-6-yl)acetic acid] | 0.053
21 | Cc1nc2cc(C(=O)NS(=O)(=O)c3ccccc3)nn2c(-c2cc(F)c3c(c2C)CCCO3)c1[C@H](OC(C)(C)C)C(=O)O [Example 13, (2S)-2-(tert-butoxy)-2-(7-(8-fluoro-5-methylchroman-6-yl)-5-methyl-2-((phenylsulfonyl)carbamoyl)pyrazolo[1,5-a]pyrimidin-6-yl)acetic acid] | 40

Reference: patent publication US8791108B2, “Inhibitors of human immunodeficiency virus replication” (priority 2011, dated 2014)
